Where a name gives a salt, the structure may show the parent alone. Read-outs that look alike come from different tables or passages of the source.
Assays:
[1] = tested on: allergic reaction of the delayed type in mice; assay: delayed-type (contact) hypersensitivity reaction to dinitrochlorobenzene, ear thickness in mice; assay type: in vivo, CBA mice; conditions: for Ear thickness, Control, Average value / Ear thickness, Control, Range of fluctuations: control (right) ear; for Ear thickness, Experiment, Average value / Ear thickness, Experiment, Range of fluctuations: test (left) ear
[2] = tested on: delayed-type hypersensitivity reaction; assay: delayed-type hypersensitivity reaction to 2,4-dinitrochlorobenzene in guinea pigs; assay type: in vivo
[3] = tested on: delayed-type hypersensitivity reaction; assay: delayed-type hypersensitivity reaction to rat's thymocytes in mice (popliteal lymph nodes); assay type: in vivo; conditions: for effect on the development of the delayed-type hypersensitivity reactions: Table 3 (mice and guinea pigs)
human tonsillocytes [4] = assay: natural cytotoxicity (natural killers) of human tonsillocytes, 51Cr release; assay type: cell-based; conditions: for Yield of 51Cr from target cells, natural cytotoxicity, average value: (III) significant P below 0.05
Text: (§1) The cytolytic effect of tonsillocytes was studied by the radioisotope method using Cr^51. On doing so, the deterioration of target cells (chicken's erythrocytes) by tonsil lymphocytes was regarded as spontaneous cytolysis, while the destruction of the target cells loaded, in addition to the isotopic tracer, with homologous antibodies in the sublytic dose was considered as antibody-dependent cytolysis. […] Afterwards they were twice washed by means of Medium 199 using centrifugation (105 g, 10 minutes). […] The degree of destruction of the target cells was determined radiometrically by the outcome of Cr^51 into the liquid phase.

human tonsillocytes [5] = assay: antibody-dependent cytotoxicity of human tonsillocytes, 51Cr release; assay type: cell-based
Text: as §1, with “On this basis, the effect of one of the lest toxic compound (III) out of those of the present invention was studied for the antibody-dependent cytolytic activity of cells. […] The cytolytic” for “The cytolytic”

splenocytes = assay: effect on cyclic nucleotides (c-AMP, c-GMP) and phosphodiesterase of c-AMP; assay type: cell-based
[6] = tested on: virus of vesicular stomatitis; assay type: cell-based
[7] = tested on: Staphylococcus aureus, Proteum, Bacillus pyocyanes; assay: antibacterial activity in vitro, serial dilutions; assay type: cell-based; conditions: relative to compound (II)
Method: In the experiments in vitro the antibacterial activity of the compounds of the present invention was studied. To this end, serial dilutions of compounds (II) and (III) with a concentration of from 1% to 0.00001% were prepared and 0.1 ml of a microbal suspension was added thereto (Staphylococcus aureus, Proteum, Bacillus pyocyanes). The microbal load for staphylococcus was about 1×10^5 cells/ml, for Proteum and Bacillus pyocyanes -1×10^4 c cells/ml. […] The bacteria were incubated along with the compounds according to the present invention at the temperature of 37° C. […] Inoculations were effected by spreading 0.1 ml of a suspension of bacteria in a corresponding dilution of the compounds over the surface of an agar dish using a glass spatula.

immune system = conditions: prior art; cited from earlier work
[8] = prior art, hydrochloride, cited from earlier work
[9] = tested on: IgE antibodies in respiratory organs
Method: The local production of IgE-antibodies in trachea and lungs of rats of the lines WAY, August with a mass of 250-300 g was induced by means of a successive (with the interval of 40 minutes) dropping a 0.1% solution of histamine and ambrosia allergen (10,000 PNU/ml) into both nasal passages. […] One day after the administration of the allergen IgE-antibodies were determined in homogenates of trachea and lungs prepared at the rate of 0.1 ml of a physiological solution per 10 mg of the tissue by the method of indirect degranulation of obese cells.

[10] = second levamizole line, printed 2.5 mg/kg
[11] = 100 μg/ml, negative = test value exceeded the control
[12] = 100 μg/ml, certainty: (II), (III) below 0.05, (I), levamizole above 0.05
[13] = 500 μg/ml, certainty: all below 0.05

c1ccc([C@H]2CN3CCSC3=N2)cc1 [levamizole, L-(-)-2,3,5,6-tetrahydro-6-phenylimidazo-[2,1-b]-thiazole hydrochloride, reference compound]
Ear thickness, Control, Average value ([1]; 2.5 mg/kg per os): 162.3 μm | Ear thickness, Control, Range of fluctuations ([1]; 2.5 mg/kg per os): 130-200 μm | Ear thickness, Experiment, Average value ([1]; 2.5 mg/kg per os): 210.0 μm | Ear thickness, Experiment, Range of fluctuations ([1]; 2.5 mg/kg per os): 160-280 μm | dose inhibiting the development of the contact hypersensitivity ([1]; per os): 25 mg/kg | Ear thickness, Control, Average value [1, 10]: 179.2 μm | Ear thickness, Control, Range of fluctuations [1, 10]: 160-190 μm | Ear thickness, Experiment, Average value [1, 10]: 179.2 μm | Ear thickness, Experiment, Range of fluctuations [1, 10]: 170-190 μm | Difference in temperature of the pad surfaces, Average value [2, 11]: -1.3 ± 0.06 °C | Difference in thickness of control and test talipes, Average value [2, 11]: -0.75 ± 0.08 mm | Difference in temperature of the pad surfaces, Average value ([2]; 1,000 μg/ml): +1.1 ± 0.11 °C | Difference in thickness of control and test talipes, Average value ([2]; 1,000 μg/ml): +0.51 ± 0.064 mm | effect on the development of the delayed-type hypersensitivity reactions ([3]; 100 μg/ml): surely stimulates | Difference in masses of popliteal lymph nodes in the control and test limb, Average value [3, 11]: -0.9 ± 0.13 mg | Difference in masses of popliteal lymph nodes in the control and test limb, Average value ([3]; 500 μg/ml): +1.0 ± 0.13 mg | Difference in masses of popliteal lymph nodes in the control and test limb, Average value ([3]; 1,000 μg/ml): +1.2 ± 0.12 mg | effect on the development of the delayed-type hypersensitivity reactions ([3]; 500 and 1,000 μg/ml): effectively inhinits | Yield of 51Cr from target cells, natural cytotoxicity, range of fluctuations (human tonsillocytes [4]; 1 μg/ml): 3.0-41.0% | Yield of 51Cr from target cells, natural cytotoxicity, average value (human tonsillocytes [4]; 1 μg/ml): 16.2% | Yield of 51Cr from target cells, natural cytotoxicity, range of fluctuations (human tonsillocytes [4]; 10 μg/ml): 5.0-53.0% | Yield of 51Cr from target cells, natural cytotoxicity, average value (human tonsillocytes [4]; 10 μg/ml): 18.4% | Yield of 51Cr from target cells, natural cytotoxicity, range of fluctuations (human tonsillocytes [4]; 100 μg/ml): 5.0-49.0% | Yield of 51Cr from target cells, natural cytotoxicity, average value (human tonsillocytes [4]; 100 μg/ml): 20.5% | activity of natural killers of tonsil cells (human tonsillocytes [4]; levamizole): not noticeably changed | Yield of 51Cr from target cells, antibody dependent cytotoxicity, range of fluctuations (human tonsillocytes [5]; 1 μg/ml): 1.0-32.0% | Yield of 51Cr from target cells, antibody dependent cytotoxicity, average (human tonsillocytes [5]; 1 μg/ml, (III) significant P below 0.05): 14.0% | Yield of 51Cr from target cells, antibody dependent cytotoxicity, range of fluctuations (human tonsillocytes [5]; 10 μg/ml): 1.0-36.0% | Yield of 51Cr from target cells, antibody dependent cytotoxicity, average (human tonsillocytes [5]; 10 μg/ml, (III) significant P below 0.05): 14.2% | Yield of 51Cr from target cells, antibody dependent cytotoxicity, range of fluctuations (human tonsillocytes [5]; 100 μg/ml): 8.0-39.0% | Yield of 51Cr from target cells, antibody dependent cytotoxicity, average (human tonsillocytes [5]; 100 μg/ml, levamizole significant P below 0.05): 22.8% | minimal effective concentration (human tonsillocytes [5]; Homo sapiens, read-out: concentration stimulating the antibody-dependent cytolytic activity): 100 µg/mL | concentrations of c-AMP and c-GMP (splenocytes): reciprocal variations of concentrations of c-AMP and c-GMP | Degree of inhibition of the virus reproduction ([6]; 1 μg/ml): 0 times | Degree of inhibition of the virus reproduction ([6]; 10 μg/ml): 10 times | antibacterial activity lower by a factor of [7]: 2 | effect in respect of various immunological responses (immune system): stimulating effect in respect of various immunological responses | toxicity and side effects [8]: high toxicity and a high frequency of the observed side effects | toxicity and side effects ([8]; listed as Levamizole): toxic and has diverse side effects | Percent of degranulated mastocytes, Lungs [9, 12]: 18.1 ± 1.9% | Percent of degranulated mastocytes, Trachea [9, 12]: 17.3 ± 1.8% | Percent of degranulated mastocytes, Lungs [9, 13]: 6.1 ± 1.1% | Percent of degranulated mastocytes, Trachea [9, 13]: 7.4 ± 0.2% | concentration inhibiting the formation of the IgE-antibodies in the respiratory organs ([9]; rat, in vivo): 500 µg/mL

— US4550170A, “6-Phenyl-2,3,5,6-tetrahydroimidazo-[2,1-b]-thiazole derivatives” (Institut Organicheskoi Khimii Akademii Nauk Ukrainskoi SSR, priority 1984, dated 1985)
